Patent EP0615449B1, “USE OF FLAVINE DERIVATIVES IN THE PRODUCTION OF MEDICO-SURGICAL SANITARY ARTICLES AND SANITARY ARTICLES SO OBTAINED” (BERQUE, Jean, priority 1992, dated 1994)

What was measured:
HIV [1] = assay: In vitro antiviral tests of FAD compared with AZT and DDI; type: cell-based
[2] = Cytotoxicity observed in the in vitro tests of FAD; type: cell-based
[3] = vulcanisation à chaud du latex; cited from earlier work
VIH = conditions: cited from earlier work
rougeole = conditions: traitement par la vitamine A, AFRIQUE DU SUD; cited from earlier work
[4] = tested on: cellules CEM-SS infectées par HIV1; assay: In vitro anti-viral test on HIV1-infected CEM-SS cells (Institut de Virologie, Strasbourg), read out as reverse transcriptase inhibition; type: cell-based; conditions: dilution au 1/5000è
Description: Début 1992, un test "in vitro" a été effectué par l'Institut de Virologie de la Faculté de Strasbourg. Le test est positif à la dilution au 1/5000è sur les cellules CEM-SS infectées par HIV1; l'effet anti-viral est objectivé par une inhibition de la transcriptase reverse supérieure à 50%.

Herpès génital = assay: Clinical observation, intravenous vitamin B2 in a patient with recurrent genital herpes; type: in vivo; conditions: récurrence importante d'un Herpès génital; voie intra-veineuse, injection unique de 20 mg par jour
Description: (§1) L'idée de départ découlait donc de constatations expérimentales concernant la photosynthèse protéique à l'échelle animale et la photosynthèse virale. On a donc utilisé initialement la vitamine B2 en fonction de ses propriétés d'absorption de la lumière avec l'idée d'interposer un écran photoprotecteur entre le rayonnement solaire UV parvenant à l'organisme et les virus HIV et HSV dont les patients étaient porteurs. Ce concept a été formulé dans le but d'"éteindre" ces virus dont il semblait, en fonction des hypothèses émises, que le rayonnement ultra-violet activait tant leur synthèse que leur replication. Les effets cliniques spectaculaires et très rapidement obtenus ont confirmé l'hypothèse de départ. C'est par la suite que le Demandeur s'est rendu compte qu'outre les propriétés photoprotectrices de la vitamine B2, la formule biochimique diphosphonucléotidique de son métabolite actif, le FAD, jouait également un rôle important.

[5] = lait exposé à la lumière, même dans un emballage transparent; cited from earlier work
HIV [6] = assay: Clinical observation, intravenous vitamin B2 in an AIDS patient (stage IV); type: in vivo; conditions: malade sidéen stade IV; voie intra-veineuse, injection unique de 20 mg par jour
Description: as §1

Cc1cc2nc3c(=O)[nH]c(=O)nc-3n(C[C@H](O)[C@H](O)[C@H](O)COP(=O)(O)OP(=O)(O)OC[C@H]3O[C@@H](n4cnc5c(N)ncnc54)[C@H](O)[C@@H]3O)c2cc1C [FAD, flavine -adenine dinucleotide]
activité in vitro (HIV [1]): aussi actif in vitro que l'AZT et plus actif que le DDI | cyto-toxicité [2]: sans aucune cyto-toxicité | stabilité thermique [3]: thermostables

C=CC1=C(C)c2cc3[n-]c(cc4[n-]c(cc5nc(cc1n2)C(C)=C5C=C)c(C)c4CCC(=O)O)c(CCC(=O)O)c3C.[Fe+2] [Hème]
activité anti-VIH in vitro (VIH): exerce une activité anti-VIH in vitro

N[C@@H](CCC(=O)N[C@@H](CS)C(=O)NCC(=O)O)C(=O)O [glutathion]
activité anti-VIH in vitro (VIH): exerce une activité anti-VIH in vitro

CC1=C(/C=C/C(C)=C/C=C/C(C)=C/CO)C(C)(C)CCC1 [vitamine A]
amélioration de la rougeole (rougeole): amélioration notable

Cc1cc2nc3c(=O)[nH]c(=O)nc-3n(C[C@H](O)[C@H](O)[C@H](O)CO)c2cc1C [vitamine B2, Riboflavine]
inhibition de la transcriptase reverse [4]: > 50% | test "in vitro" (effet anti-viral) [4]: positif | effets cliniques (Herpès génital): résultats spectaculaires | Riboflavine détruite [5]: 85% | effets cliniques (HIV [6]): résultats spectaculaires

acides biliaires
activité anti-VIH in vitro (VIH): actifs in vitro sur le VIH
